biological target: T1, HGFR (Homo sapiens, UniProt P08581); assay: Inhibitory activity against the HGFR autophosphorylation using ELISA (MKN-45 cells); assay type: cell-based; conditions: 1 hr with test substance
T1 construct: endogenous in cells; host or cells: MKN-45 human gastric cancer cells
How it was run: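 MKN-45 gastric cancer cells, plated overnight in 1% FBS RPMI1640, treated with compound 1 h at 37° C and lysed. Lysate captured on anti-phosphotyrosine (PY20) plates, probed with anti-HGFR then HRP anti-rabbit IgG; TMB absorbance at 450 nm. Activity expressed as % of untreated extract (100%) versus lysis buffer blank (0%).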

T1 sequence (P08581 25-1390): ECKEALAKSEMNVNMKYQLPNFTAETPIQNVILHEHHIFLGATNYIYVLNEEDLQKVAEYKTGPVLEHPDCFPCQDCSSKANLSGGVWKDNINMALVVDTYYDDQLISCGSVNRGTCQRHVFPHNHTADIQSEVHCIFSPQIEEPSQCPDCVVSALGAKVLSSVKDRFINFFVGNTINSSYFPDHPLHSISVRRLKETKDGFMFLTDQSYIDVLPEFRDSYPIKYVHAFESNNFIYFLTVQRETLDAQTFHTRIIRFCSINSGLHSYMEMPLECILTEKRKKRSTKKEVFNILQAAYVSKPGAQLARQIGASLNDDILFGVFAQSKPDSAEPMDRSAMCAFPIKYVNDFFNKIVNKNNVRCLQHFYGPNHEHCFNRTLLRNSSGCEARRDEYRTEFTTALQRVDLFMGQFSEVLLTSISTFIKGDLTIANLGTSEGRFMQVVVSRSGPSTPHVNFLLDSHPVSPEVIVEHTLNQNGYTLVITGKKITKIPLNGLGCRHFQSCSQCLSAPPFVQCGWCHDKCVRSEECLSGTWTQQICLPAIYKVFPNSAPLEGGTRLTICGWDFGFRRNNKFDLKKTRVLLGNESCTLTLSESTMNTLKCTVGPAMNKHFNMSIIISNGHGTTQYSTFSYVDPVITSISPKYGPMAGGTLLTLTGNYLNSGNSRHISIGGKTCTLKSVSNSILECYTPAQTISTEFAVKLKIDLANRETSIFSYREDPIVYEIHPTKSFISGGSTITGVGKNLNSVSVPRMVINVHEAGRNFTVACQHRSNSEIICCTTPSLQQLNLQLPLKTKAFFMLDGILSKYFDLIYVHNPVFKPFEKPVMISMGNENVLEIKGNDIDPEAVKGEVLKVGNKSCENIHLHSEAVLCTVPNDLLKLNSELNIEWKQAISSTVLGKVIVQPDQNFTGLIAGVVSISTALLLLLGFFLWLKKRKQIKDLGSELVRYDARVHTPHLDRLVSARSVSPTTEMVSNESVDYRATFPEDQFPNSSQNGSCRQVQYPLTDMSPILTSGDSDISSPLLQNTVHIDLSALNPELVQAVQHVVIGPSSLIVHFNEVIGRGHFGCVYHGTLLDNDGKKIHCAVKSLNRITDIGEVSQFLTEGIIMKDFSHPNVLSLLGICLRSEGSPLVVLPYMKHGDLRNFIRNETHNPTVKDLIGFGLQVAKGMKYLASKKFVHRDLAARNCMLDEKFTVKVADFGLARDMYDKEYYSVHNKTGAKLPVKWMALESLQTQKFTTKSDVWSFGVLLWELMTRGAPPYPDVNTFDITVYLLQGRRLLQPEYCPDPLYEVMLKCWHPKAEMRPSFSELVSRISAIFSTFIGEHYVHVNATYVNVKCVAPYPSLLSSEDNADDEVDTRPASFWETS

First: CN(C)CCN1CCN(C(=O)Nc2cc(Oc3ccc(NC(=O)C4(C(=O)Nc5ccc(F)cc5)CC4)cc3F)ccn2)CC1 [Example 7, N-[4-({2-[({4-[2-(Dimethylamino)ethyl]piperazin-1-yl}carbonyl)amino]pyridin-4-yl}oxy)-3-fluorophenyl]-N′-(4-fluorophenyl)cyclopropane-1,1-dicarboxamide]
Second: CN(C)C1CCN(C(=O)Nc2cc(Oc3ccc(NC(=O)C4(C(=O)Nc5ccc(F)cc5)CC4)cc3F)ccn2)CC1 [Example 23, N-(4-{[2-({[4-(Dimethylamino)piperidin-1-yl]carbonyl}amino)pyridin-4-yl]oxy}-3-fluorophenyl)-N′-(4-fluorophenyl)cyclopropane-1,1-dicarboxamide]
The IC50 of the first is 2.1-fold higher: 35 nM for the first, 17 nM for the second.

CN1CCC(N(C)C(=O)Nc2cc(Oc3ccc(NC(=O)C4(C(=O)Nc5ccc(F)cc5)CC4)cc3F)ncn2)CC1 [Example 33, N-(3-Fluoro-4-{[6-({[methyl(1-methylpiperidin-4-yl)amino]carbonyl}amino)pyrimidin-4-yl]oxy}phenyl)-N′-(4-fluorophenyl)cyclopropane-1,1-dicarboxamide] and CN1CCC(N(C)C(=O)Nc2cc(Oc3ccc(NC(=O)C4(C(=O)Nc5ccc(F)cc5)CC4)cc3F)ccn2)CC1 [Example 1, N-(3-Fluoro-4-{[2-({[methyl(1-methylpiperidin-4-yl)amino]carbonyl}amino)pyridin-4-yl]oxy}phenyl)-N′-(4-fluorophenyl)cyclopropane-1.1-dicarboxamide] are within 1.5-fold of each other in IC50: 25 nM for the first, 18 nM for the second.

O=C(Nc1cc(Oc2cc(F)c(NC(=O)C3(C(=O)Nc4ccc(F)cc4)CC3)cc2F)ccn1)N1CCC(O)CC1 [Example 105] and CN(C)C1CCN(C(=O)Nc2cc(Oc3cc(F)c(NC(=O)C4(C(=O)Nc5ccc(F)cc5)CC4)cc3F)ccn2)CC1 [Example 103, N-(4-{[2-({[4-(Dimethylamino)piperidin-1-yl]carbonyl}amino)pyridin-4-yl]oxy}-2,5-difluorophenyl)-N′-(4-fluorophenyl)cyclopropane-1,1-dicarboxamide] are within 1.5-fold of each other in IC50: 8.6 nM for the first, 12 nM for the second.

First: CN(C)[C@@H]1CCN(C(=O)Nc2cc(Oc3ccc(NC(=O)C4(C(=O)Nc5ccc(F)cc5)CC4)c(F)c3)ccn2)C1 [Example 47, N-(4-{[2-({[(3R)-3-(Dimethylamino)pyrrolidin-1-yl]carbonyl}amino)pyridin-4-yl]oxy}-2-fluorophenyl)-N′-(4-fluorophenyl)cyclopropane-1,1-dicarboxamide]
Second: CN(C)[C@H]1CCN(C(=O)Nc2cc(Oc3ccc(NC(=O)C4(C(=O)Nc5ccccc5)CC4)c(F)c3)ccn2)C1 [Example 58, N-(4-{[2-({[(3S)-3-(Dimethylamino)pyrrolidin-1-yl]carbonyl}amino)pyridin-4-yl]oxy}-2-fluorophenyl)-N′-phenylcyclopropane-1,1-dicarboxamide]
The IC50 of the first is 1.8-fold higher: 30 nM for the first, 17 nM for the second.

O=C(Nc1cc(Oc2ccc(NC(=O)C3(C(=O)Nc4ccc(F)cc4)CC3)c(F)c2F)ccn1)N1CC(O)C1 [Example 106, N-[2,3-Difluoro-4-[(2-{[(3-hydroxyazetidin-1-yl)carbonyl]amino}pyridin-4-yl)oxy]phenyl}-N′-(4-fluorophenyl)cyclopropane-1,1-dicarboxamide] and CN(C)CC1CN(C(=O)Nc2cc(Oc3ccc(NC(=O)C4(C(=O)Nc5ccc(F)cc5)CC4)c(F)c3F)ccn2)C1 [Example 107, N-[4-({2-[({3-[(Dimethylamino)methyl]azetidine-1-yl}carbonyl)amino]pyridin-4-yl}oxy)-2,3-difluorophenyl]-N′-(4-fluorophenyl)cyclopropane-1,1-dicarboxamide] are within 1.5-fold of each other in IC50: 39 nM for the first, 36 nM for the second.

O=C(Nc1cc(Oc2ccc(NC(=O)C3(C(=O)Nc4ccc(F)cc4)CC3)c(F)c2)ccn1)N1CCC1 [Example 61, N-[4-({2-[(Azetidin-1-ylcarbonyl)amino]pyridin-4-yl]oxy}-2-fluorophenyl]-N′-(4-fluorophenyl)cyclopropane-1,1-dicarboxamide] and O=C(Nc1cc(Oc2ccc(NC(=O)C3(C(=O)Nc4ccc(F)cc4)CC3)c(F)c2)ccn1)N1CCCC1 [Example 62, N-(4-Fluorophenyl)-N′-[2-fluoro-4-({2-[(pyrrolidin-1-ylcarbonyl)amino]pyridin-4-yl}oxy)phenyl]cyclopropane-1,1-dicarboxamide] are within 1.5-fold of each other in IC50: 8 nM for the first, 11 nM for the second.

First: CN1CCC(N2CCN(C(=O)Nc3cc(Oc4ccc(NC(=O)C5(C(=O)Nc6ccc(F)cc6)CC5)cc4)ccn3)CC2)CC1 [Example 31, N-(4-Fluorophenyl)-N′-(4-{[2-({[4-(1-methylpiperidin-4-yl)piperazin-1-yl]carbonyl}amino)pyridin-4-yl]oxy}phenyl)cyclopropane-1,1-dicarboxamide]
Second: CN1CCC(N2CCN(C(=O)Nc3cc(Oc4ccc(NC(=O)C5(C(=O)Nc6ccc(F)cc6)CC5)c(F)c4)ccn3)CC2)CC1 [Example 16, N-(2-Fluoro-4-{[2-({[4-(1-methylpiperidin-4-yl)piperazin-1-yl]carbonyl}amino)pyridin-4-yl]oxy}phenyl)-N′-(4-fluorophenyl)cyclopropane-1,1-dicarboxamide]
The IC50 of the first is 1.7-fold higher: 30 nM for the first, 18 nM for the second.

O=C(Nc1cc(Oc2ccc(NC(=O)C3(C(=O)Nc4ccc(F)cc4)CC3)cc2)ccn1)N1CCN(CCN2CCC2)CC1 [Example 28, N-(4-{[2-({[4-(2-Azetidin-1-ylethyl)piperazin-1-yl]carbonyl}amino)pyridin-4-yl]oxy}phenyl)-N′-(4-fluorophenyl)cyclopropane-1,1-dicarboxamide] and O=C(Nc1cc(Oc2ccc(NC(=O)C3(C(=O)Nc4ccc(F)cc4)CC3)cc2)ccn1)N1CCC(CN2CCC2)CC1 [Example 27, N-(4-{[2-({f [4-(Azetidin-1-ylmethyl)piperidin-1-yl]carbonyl}amino)pyridin-4-yl]oxy}phenyl)-N′-(4-fluorophenyl)cyclopropane-1,1-dicarboxamide] are within 1.5-fold of each other in IC50: 43 nM for the first, 32 nM for the second.

Compared with CN1CCC(N(C)C(=O)Nc2cc(Oc3ccc(NC(=O)C4(C(=O)Nc5ccc(F)cc5)CC4)cc3)ccn2)CC1 [Example 12], CN(C)C1CN(C2CCN(C(=O)Nc3cc(Oc4ccc(NC(=O)C5(C(=O)Nc6ccc(F)cc6)CC5)cc4)ccn3)CC2)C1 [Example 38, N-[4-({2-[({4-[3-(Dimethylamino)azetidin-1-yl]piperidin-1-yl}carbonyl)amino]pyridin-4-yl}oxy)phenyl]-N′-(4-fluorophenyl)cyclopropane-1,1-dicarboxamide] is 2.2-fold lower in IC50: 40 nM for the first, 18 nM for the second. The second is the more potent here.

Compared with O=C(Nc1cc(Oc2ccc(NC(=O)C3(C(=O)Nc4ccc(F)cc4)CC3)c(F)c2)ccn1)N1CCOCC1 [Example 63, N-[2-Fluoro-4-({2-[(morpholin-4-ylcarbonyl)amino]pyridin-4-yl}oxy)phenyl]-N′-(4-fluorophenyl)cyclopropane-1,1-dicarboxamide], O=C(Nc1cc(Oc2ccc(NC(=O)C3(C(=O)Nc4ccc(F)cc4)CC3)c(F)c2)ccn1)N1CC(N2CCC2)C1 [Example 73, N-[4-({2-[(1,3′-Biazetidin-1′-ylcarbonyl)amino]pyridin-4-yl}oxy)-2-fluorophenyl]-N′-(4-fluorophenyl)cyclopropane-1,1-dicarboxamide] is 2.6-fold lower in IC50: 21 nM for the first, 8 nM for the second.

O=C(Nc1cc(Oc2ccc(NC(=O)C3(C(=O)Nc4ccc(F)cc4)CC3)c(F)c2)ccn1)N1CCC(N2CCC2)CC1 [Example 9, N-{4-[(2-{[(4-Azetidin-1-ylpiperidin-1-yl)carbonyl]amino}pyridin-4-yl)oxy]-2-fluorophenyl}-N′-(4-fluorophenyl)cyclopropane-1,1-dicarboxamide] and O=C(Nc1cc(Oc2ccc(NC(=O)C3(C(=O)Nc4ccc(F)cc4)CC3)c(F)c2)ccn1)N1CCC(N2CCCC2)CC1 [Example 4, N-(4-Fluorophenyl)-N′-{2-fluoro-4-[(2-{[(4-pyrrolidin-1-ylpiperidin-1-yl)carbonyl]amino}pyridin-4-yl)oxy]phenyl}cyclopropane-1,1-dicarboxamide] are within 1.5-fold of each other in IC50: 11 nM for the first, 14 nM for the second.

Compared with CN1CC(N2CCN(C(=O)Nc3cc(Oc4ccc(NC(=O)C5(C(=O)Nc6ccc(F)cc6)CC5)cc4F)ccn3)CC2)C1 [Example 22, N-(3-Fluoro-4-{[2-({[4-(1-methylazetidin-3-yl)piperazin-1-yl]carbonyl}amino)pyridin-4-yl]oxy}phenyl)-N′-(4-fluorophenyl)cyclopropane-1,1-dicarboxamide], O=C(Nc1cc(Oc2ccc(NC(=O)C3(C(=O)Nc4ccc(F)cc4)CC3)cc2F)ccn1)N1CCC(CN2CCC2)CC1 [Example 26, N-(4-{[2-({[4-(Azetidin-1-ylmethyl)piperidin-1-yl]carbonyl}amino)pyridin-4-yl]oxy}-3-fluorophenyl)-N′-(4-fluorophenyl)cyclopropane-1,1-dicarboxamide] is 2.5-fold lower in IC50: 21 nM for the first, 8.4 nM for the second.

CN(C)C1CN(C2CCN(C(=O)Nc3cc(Oc4ccc(NC(=O)C5(C(=O)Nc6ccccc6)CC5)c(F)c4)ccn3)CC2)C1 [Example 55] and CN1CCC(N(C)C(=O)Nc2cc(Oc3ccc(NC(=O)C4(C(=O)Nc5ccccc5)CC4)c(F)c3)ccn2)CC1 [Example 48, N-(2-Fluoro-4-{[2-({[methyl(1-methylpiperidin-4-yl)amino]carbonyl}amino)pyridin-4-yl]oxy}phenyl)-N′-phenylcyclopropane-1,1-dicarboxamide] are within 1.5-fold of each other in IC50: 16 nM for the first, 12 nM for the second.

Going from O=C(Nc1cc(Oc2ccc(NC(=O)C3(C(=O)Nc4ccc(F)cc4)CC3)c(F)c2)ccn1)N1CCC(CN2CCCC2)CC1 [Example 40, N-(4-Fluorophenyl)-N′-(2-fluoro-4-{[2-({[4-(pyrrolidin-1-ylmethyl)piperidin-1-yl]carbonyl}amino)pyridin-4-yl]oxy}phenyl)cyclopropane-1,1-dicarboxamide] to CCN(CC)CCCNC(=O)Nc1cc(Oc2ccc(NC(=O)C3(C(=O)Nc4ccc(F)cc4)CC3)cc2C)ccn1 [Example 45, N-[4-({2-[({[3-(Diethylamino)propyl]amino}carbonyl)amino]pyridin-4-yl}oxy)-3-methylphenyl]-N′-(4-fluorophenyl)cyclopropane-1,1-dicarboxamide], the IC50 rises from 8 nM to 440 nM (55-fold). The first is the more potent here.
